Data from patent publication US11919901B2 (Syndax Pharmaceuticals, Inc., priority 2021, dated 2024).

System: MV4-11 cells
Test: Cell proliferation assay MV4;11 (CellTiter-Glo, 72 hours)
Assay type: cell-based
Conditions: Homo sapiens; MV4;11 leukemia cell line, 72 hours; read-out: MV4; 11 IC50
Procedure, shortened: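 Luminescent CellTiter-Glo readout after 72 h culture, 37 °C, 5% CO2, expressed relative to vehicle-treated wells, with maximal inhibition taken at the highest dose. MLL-rearranged MV4-11 leukemia cells; final compound range 0.632 to 2000 nM in eight steps.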

| Compound | IC50 |
| --- | --- |
| C[C@@H]1COC[C@@H](C)N1C(=O)c1cc(F)ccc1Oc1cncnc1N1CC2(CCN(C[C@@H]3CC[C@@H](NS(=O)(=O)N(C)C4CC4)CO3)CC2)C1 [Example 129, N-{[(3R,6S)-6-{[2-(5-{2-[(3R,5R)-3,5-Dimethylmorpholine-4-carbonyl]-4-fluorophenoxy}pyrimidin-4-yl)-2,7-diazaspiro[3.5]nonan-7-yl]methyl}oxan-3-yl]sulfamoyl}-N-methylcyclopropanamine] | < 100 nM |
| C[C@@H]1COC[C@H](C)N1C(=O)c1cc(F)ccc1Oc1cncnc1N1CC2(CCN(C[C@@H]3CC[C@@H](NS(=O)(=O)c4ccccc4)CO3)CC2)C1 [Example 130, N-((3R,6S)-6-((2-(5-(2-((3S,5R)-3,5-Dimethylmorpholine-4-carbonyl)-4-fluorophenoxy)pyrimidin-4-yl)-2,7-diazaspiro[3.5]nonan-7-yl)methyl)tetrahydro-2H-pyran-3-yl)benzenesulfonamide] | < 100 nM |
| Cc1nc(S(=O)(=O)N[C@@H]2CC[C@@H](CN3CCC4(CC3)CN(c3ncncc3Oc3ccc(F)cc3C(=O)N3[C@H](C)COC[C@@H]3C)C4)OC2)cs1 [Example 131, N-((3R,6S)-6-((2-(5-(2-((3S,5R)-3,5-Dimethylmorpholine-4-carbonyl)-4-fluorophenoxy)pyrimidin-4-yl)-2,7-diazaspiro[3.5]nonan-7-yl)methyl)tetrahydro-2H-pyran-3-yl)-2-methylthiazole-4-sulfonamide] | < 100 nM |
| CC(C)N(C(=O)c1cc(F)ccc1Oc1cncnc1N1CC2(CCN(C[C@@H]3CC[C@@H](NS(=O)(=O)C(C)C)CO3)CC2)C1)[C@@H]1CCOC1 [Example 132, 5-Fluoro-N-isopropyl-2-((4-(7-(((2S,5R)-5-((1-methylethyl)sulfonamido)tetrahydro-2H-pyran-2-yl)methyl)-2,7-diazaspiro[3.5]nonan-2-yl)pyrimidin-5-yl)oxy)-N-((R)-tetrahydrofuran-3-yl)benzamide] | < 100 nM |
| CC(C)N(C(=O)c1cc(F)ccc1Oc1cncnc1N1CC2(CCN(C[C@@H]3CC[C@@H](NS(=O)(=O)N4CCC4)CO3)CC2)C1)[C@H]1CCOC1 [Example 134, 2-((4-(7-(((2S,5R)-5-(Azetidine-1-sulfonamido)tetrahydro-2H-pyran-2-yl)methyl)-2,7-diazaspiro[3.5]nonan-2-yl)pyrimidin-5-yl)oxy)-5-fluoro-N-isopropyl-N-((S)-tetrahydrofuran-3-yl)benzamide] | < 100 nM |
| CC(C)N(CCC#N)C(=O)c1cc(F)ccc1Oc1cncnc1N1CC2(CCN(C[C@@H]3CC[C@@H](NS(=O)(=O)c4ccccc4)CO3)CC2)C1 [Example 136, N-(2-Cyanoethyl)-5-fluoro-N-isopropyl-2-((4-(7-(((2S,5R)-5-(phenylsulfonamido)tetrahydro-2H-pyran-2-yl)methyl)-2,7-diazaspiro[3.5]nonan-2-yl)pyrimidin-5-yl)oxy)benzamide] | < 100 nM |
| CC(C)N(C)C(=O)c1cc(F)ccc1Oc1cncnc1N1CC2(CCN(C[C@@H]3CC[C@@H](NS(=O)(=O)N(C)C)CO3)CC2)C1 [Example 137, 2-((4-(7-(((2S,5R)-5-((N,N-Dimethylsulfamoyl)amino)tetrahydro-2H-pyran-2-yl)methyl)-2,7-diazaspiro[3.5]nonan-2-yl)pyrimidin-5-yl)oxy)-5-fluoro-N-isopropyl-N-methylbenzamide] | < 100 nM |
| CC(C)N(C)C(=O)c1cc(F)ccc1Oc1cncnc1N1CC2(CCN(C[C@@H]3CC[C@@H](NS(=O)(=O)N4CCC4)CO3)CC2)C1 [Example 138, 2-((4-(7-(((2S,5R)-5-(Azetidine-1-sulfonamido)tetrahydro-2H-pyran-2-yl)methyl)-2,7-diazaspiro[3.5]nonan-2-yl)pyrimidin-5-yl)oxy)-5-fluoro-N-isopropyl-N-methylbenzamide] | < 100 nM |
| CCN(C(=O)c1cc(F)ccc1Oc1cncnc1N1CC2(CCN(C[C@@H]3CC[C@@H](NS(=O)(=O)N(C)CC)CO3)CC2)C1)C(C)C [Example 140, N-Ethyl-2-((4-(7-(((2S,5R)-5-((N-ethyl-N-methylsulfamoyl)amino)tetrahydro-2H-pyran-2-yl)methyl)-2,7-diazaspiro[3.5]nonan-2-yl)pyrimidin-5-yl)oxy)-5-fluoro-N-isopropylbenzamide] | < 100 nM |
| CCNS(=O)(=O)N[C@@H]1CC[C@@H](CN2CCC3(CC2)CN(c2ncncc2Oc2ccc(F)cc2C(=O)N(CC)C(C)C)C3)OC1 [Example 141, N-Ethyl-2-((4-(7-(((2S,5R)-5-((N-ethylsulfamoyl)amino)tetrahydro-2H-pyran-2-yl)methyl)-2,7-diazaspiro[3.5]nonan-2-yl)pyrimidin-5-yl)oxy)-5-fluoro-N-isopropylbenzamide] | < 100 nM |
| CCN(C(=O)c1cc(F)ccc1Oc1cncnc1N1CC2(CCN(C[C@@H]3CC[C@@H](NS(=O)(=O)NC4CC4)CO3)CC2)C1)C(C)C [Example 142, 2-((4-(7-(((2S,5R)-5-((N-Cyclopropylsulfamoyl)amino)tetrahydro-2H-pyran-2-yl)methyl)-2,7-diazaspiro[3.5]nonan-2-yl)pyrimidin-5-yl)oxy)-N-ethyl-5-fluoro-N-isopropylbenzamide] | < 100 nM |
| CNS(=O)(=O)N[C@@H]1CC[C@@H](CN2CCC3(CC2)CN(c2ncncc2Oc2ccc(F)cc2C(=O)N(C(C)C)C(C)C)C3)OC1 [Example 143, 5-Fluoro-N,N-diisopropyl-2-((4-(7-(((2S,5R)-5-((N-methylsulfamoyl)amino)tetrahydro-2H-pyran-2-yl)methyl)-2,7-diazaspiro[3.5]nonan-2-yl)pyrimidin-5-yl)oxy)benzamide] | < 100 nM |
| CCNS(=O)(=O)N[C@@H]1CC[C@@H](CN2CCC3(CC2)CN(c2ncncc2Oc2ccc(F)cc2C(=O)N(C(C)C)C(C)C)C3)OC1 [Example 144, 2-((4-(7-(((2S,5R)-5-((N-Ethylsulfamoyl)amino)tetrahydro-2H-pyran-2-yl)methyl)-2,7-diazaspiro[3.5]nonan-2-yl)pyrimidin-5-yl)oxy)-5-fluoro-N,N-diisopropylbenzamide] | < 100 nM |
| CCNS(=O)(=O)N[C@@H]1CC[C@@H](CN2CCC3(CC2)CN(c2ncncc2Oc2ccc(F)cc2C(=O)N(C(C)C)C2CC2)C3)OC1 [Example 145, N-Cyclopropyl-2-((4-(7-(((2S,5R)-5-((N-ethylsulfamoyl)amino)tetrahydro-2H-pyran-2-yl)methyl)-2,7-diazaspiro[3.5]nonan-2-yl)pyrimidin-5-yl)oxy)-5-fluoro-N-isopropylbenzamide] | < 100 nM |
| CCNS(=O)(=O)N[C@@H]1CC[C@@H](CN2CCC3(CC2)CN(c2ncncc2Oc2ccc(F)cc2C(=O)N(CC(F)F)C(C)C)C3)OC1 [Example 147, N-(2,2-Difluoroethyl)-2-((4-(7-(((2S,5R)-5-((N-ethylsulfamoyl)amino)tetrahydro-2H-pyran-2-yl)methyl)-2,7-diazaspiro[3.5]nonan-2-yl)pyrimidin-5-yl)oxy)-5-fluoro-N-isopropylbenzamide] | < 100 nM |
| CC(C)N(CC(F)F)C(=O)c1cc(F)ccc1Oc1cncnc1N1CC2(CCN(C[C@@H]3CC[C@@H](NS(=O)(=O)NCC4CC4)CO3)CC2)C1 [Example 148, 2-((4-(7-(((2S,5R)-5-((N-(Cyclopropylmethyl)sulfamoyl)amino)tetrahydro-2H-pyran-2-yl)methyl)-2,7-diazaspiro[3.5]nonan-2-yl)pyrimidin-5-yl)oxy)-N-(2,2-difluoroethyl)-5-fluoro-N-isopropylbenzamide] | < 100 nM |
| CC(C)N(CC(F)F)C(=O)c1cc(F)ccc1Oc1cncnc1N1CC2(CCN(C[C@@H]3CC[C@@H](NS(=O)(=O)NC4CC4)CO3)CC2)C1 [Example 149, 2-((4-(7-(((2S,5R)-5-((N-Cyclopropylsulfamoyl)amino)tetrahydro-2H-pyran-2-yl)methyl)-2,7-diazaspiro[3.5]nonan-2-yl)pyrimidin-5-yl)oxy)-N-(2,2-difluoroethyl)-5-fluoro-N-isopropylbenzamide] | < 100 nM |
| CC(C)NS(=O)(=O)N[C@@H]1CC[C@@H](CN2CCC3(CC2)CN(c2ncncc2Oc2ccc(F)cc2C(=O)N(CC(F)F)C(C)C)C3)OC1 [Example 150, N-(2,2-Difluoroethyl)-5-fluoro-N-isopropyl-2-((4-(7-(((2S,5R)-5-((N-isopropylsulfamoyl)amino)tetrahydro-2H-pyran-2-yl)methyl)-2,7-diazaspiro[3.5]nonan-2-yl)pyrimidin-5-yl)oxy)benzamide] | < 100 nM |
| CCCNS(=O)(=O)N[C@@H]1CC[C@@H](CN2CCC3(CC2)CN(c2ncncc2Oc2ccc(F)cc2C(=O)N(CC(F)F)C(C)C)C3)OC1 [Example 151, N-(2,2-Difluoroethyl)-5-fluoro-N-isopropyl-2-((4-(7-(((2S,5R)-5-((N-propylsulfamoyl)amino)tetrahydro-2H-pyran-2-yl)methyl)-2,7-diazaspiro[3.5]nonan-2-yl)pyrimidin-5-yl)oxy)benzamide] | < 100 nM |
| CCS(=O)(=O)N[C@@H]1CC[C@@H](CN2CCC3(CC2)CN(c2ncncc2Oc2ccc(F)cc2C(=O)N(CC(F)(F)F)C(C)C)C3)OC1 [Example 152, 2-((4-(7-(((2S,5R)-5-(Ethylsulfonamido)tetrahydro-2H-pyran-2-yl)methyl)-2,7-diazaspiro[3.5]nonan-2-yl)pyrimidin-5-yl)oxy)-5-fluoro-N-isopropyl-N-(2,2,2-trifluoroethyl)benzamide] | < 100 nM |
| CCNS(=O)(=O)N[C@@H]1CC[C@@H](CN2CCC3(CC2)CN(c2ncncc2Oc2ccc(F)cc2C(=O)N(CC(F)(F)F)C(C)C)C3)OC1 [Example 153, 2-((4-(7-(((2S,5R)-5-((N-Ethylsulfamoyl)amino)tetrahydro-2H-pyran-2-yl)methyl)-2,7-diazaspiro[3.5]nonan-2-yl)pyrimidin-5-yl)oxy)-5-fluoro-N-isopropyl-N-(2,2,2-trifluoroethyl)benzamide] | < 100 nM |
| CNS(=O)(=O)N[C@@H]1CC[C@@H](CN2CCC3(CC2)CN(c2ncncc2Oc2ccc(F)cc2C(=O)N(C(C)C)C2CC(F)(F)C2)C3)OC1 [Example 154, N-(3,3-Difluorocyclobutyl)-5-fluoro-N-isopropyl-2-((4-(7-(((2S,5R)-5-((N-methylsulfamoyl)amino)tetrahydro-2H-pyran-2-yl)methyl)-2,7-diazaspiro[3.5]nonan-2-yl)pyrimidin-5-yl)oxy)benzamide] | < 100 nM |
